Test results: US7879795B2, “Enhancement of tigecycline potency using efflux pump inhibitors” (Mpex Pharmaceuticals, Inc., priority 2004, dated 2011)

Tests used:
[1] = In vitro stability in rat serum and tissue homogenates (LC/MS/MS); assay type: in vitro ADME; details: rat kidney homogenates, as a function of time
Description: To test the stability of the compounds in vitro, samples were prepared and analyzed by LC/MS/MS according to the following procedure.
Homogenization: A chunk of fresh tissue was weighed and mixed with saline at 1:1 ratio (w/v) in a 12×75 mm polypropylene round bottom tube. The mixture was homogenized with a Polytron homogenizer (on ice, 3×10 seconds with 10 second intervals at the setting of 7).
Incubation and TCA-precipitation: An appropriate amount of a tissue homogenate was pre-warmed at 37° C. for 2 minutes in an Eppendorf tube. The compound to be tested was added to the tube to a final concentration of 2 μg/ml, mixed, and a 60 μl aliquot was immediately taken (as 0 hour sample) and mixed with 120 μl of 4% TCA (trichloroacetic acid) in an Eppendorf tube. The temperature of the tube containing the rest of the tissue sample was returned to 37° C. for incubation. Later, samples were taken as scheduled and mixed with TCA as described above. Plasma and lavage samples were directly incubated with the compounds without addition of saline and homogenization.
LC/MS/MS sample vial preparation: TCA-precipitated sample tubes were vortexed for 30 seconds, centrifuged in a microfuge at top speed (13.2 k rpm) for 5 minutes. The supernatant was collected. The pH was neutralized to about 3.5 with ammonium acetate buffer. The sample (45 μl) was transferred to a glass LC/MS/MS vial (Kimble, 11 mm, 1.5 ml) and 5 μl of an internal standard was added to a final concentration of 500 ng/ml. LC/MS/MS analysis was performed in Chemistry Department of San Diego State University.
LC/MS/MS protocol: Thermo-Finnigan TSQ Quantum triple sector mass spectrometer with electrospray (ESI) ionization was used to analyze the samples. The operation conditions were: Mobile phase of pH 3.00 water/formic acid: acetonitrile-methanol (45%:5%:50% by volume); Thermo-Keystone Betabasic C-18 column (2.1 mm×50 mm) operated at 0.100 mL/min.
Many proteases responsible for degrading EPI compounds are located in […]. Lysozymes typically have an acidic pH (about 4.8-5), whereas the pH in tissue homogenates that were prepared was higher (kidney, pH 6.8; liver, pH 6.6; and lung, pH 7.5). To test the effect of tissue homogenates closer to physiological conditions, the pH was lowered to about 6 by adding acetic acid to the tissue homogenates and compound stability was tested. FIG. 2 depicts the stability of compounds 1 and 3 at different pH. […] The pH-dependent degradation of compound 3 was especially evident in kidney homogenates.
FIG. 4 is a bar graph depicting the stability of compound 3 in the supernatant and pellet of kidney tissue homogenates.

[2] = Stability in human kidney tissue preparations; assay type: in vitro ADME; details: in words
Description: The pattern of in vitro stability of compound 3 (stable in serum but unstable in tissues) observed in rodents was also reproduced using human kidney tissues or serum. FIG. 7 compares the in vitro stability of compounds 1 and 3 in human kidney tissue preparations.
FIG. 8 depicts formation of the metabolite, compound 67, in human kidney tissue. Concomitant with the disappearance of compound 3, generation of the expected metabolite of the presumed intralysosomal degradation, compound 67, was detected using human kidney.

[3] = Tissue levels in rat six-hour after 8.4 mg/kg IV bolus; assay type: in vivo; details: in words
Description: Tissue levels of compounds 1, 2, 3 and 4 were evaluated in kidney, liver and lung six-hour after 8.4 mg/kg IV bolus administration. FIG. 13 depicts the levels as a function of time.
Compound 67, which is the expected metabolite of proteolytic intracellular degradation of compound 3, was detected in rat tissues after IV infusion, confirming the tissue-specific degradation of compound 3 (Tables 9A, B).

[4] = test system: P. aeruginosa, PAM1723, overexpressing the MexAB-OprM efflux pump; assay: Levofloxacin potentiation checkerboard assay (broth microdilution); assay type: cell-based; details: in words
Description: Stock solution was stored at −80° C.
The checkerboard assay was performed in microtiter plates. […] EPIs were diluted in the y axis, each row containing an equal concentration of an EPI. The result of these manipulations was that each well of the microtiter plate contains a unique combination of concentrations of the two agents. The assay was performed in MHB with a final bacterial inoculum of 5×10^5 CFU/ml (from an early-log phase culture). Microtiter plates were incubated during 20 h at 35° C. and were read using a microtiterplate reader (Molecular Devices) at 650 nm as well as visual observation using a microtiter plate-reading mirror.

[5] = Serum levels of compound 3 after administration of acylated forms in rats; assay type: in vivo, rat; details: compound 5 8.4 mg/kg injected, compound 43 10 mg/kg two-hour infusion
Description: Rats were injected with compound 5 (8.4 mg/kg) and serum levels of the parent compound 3 were evaluated after extraction. The serum levels as a function of time are depicted in FIG. 16.
Rats were infused for two hours with compound 43 at 10 mg/kg and serum levels of the parent compound 3 were evaluated after extraction. FIG. 17 depicts the serum levels of compound 3 as a function of time.

[6] = Acute toxicity, minimal lethal dose after IV bolus in mice; assay type: in vivo, mouse; details: IV bolus into tail vein, lethal for at least one of three mice
Description: Acute toxicity was measured as minimal lethal dose (MLD). MLD is defined as a minimal concentration of a compound that has lethal effect for at least one mouse from the group of three mice after IV bolus injection into the mouse tail vein.

[7] = test system: strain 29A2 of P. aeruginosa overexpressing MexAB-OprM efflux pump; assay: Neutropenic mice lung model of PA infection; assay type: in vivo; details: levofloxacin 30 mg/kg SQ plus EPI IP
Description: Neutropenia was induced by cyclophosphamide 100 mg/kg IP on days 3 and 1 prior to infection. The strain 29A2 of P. aeruginosa overexpressing MexAB-OprM efflux pump was grown overnight in Mueller-Hinton Broth (MHB). The next day overnight culture was diluted in fresh MHB and was allowed to re-grow to ˜10^8 CFU/mL (OD600˜0.3). The culture was spun down, washed twice with phosphate buffered saline (PBS) and re-suspended in PBS to ˜4×10^7 CFU/mL. 50 μl of inoculum was used for intratracheal instillation of mice, which were anesthetized with sevoflourane/oxygen. […] Four mice from each treatment group were euthanized at various times after the start of treatment. The lungs were removed aseptically, homogenized in saline, and immediately plated to determine bacterial load (CFU/ml) in infected lungs. P. aeruginosa is plotted as a function of time in FIG. 20.

[8] = test system: PAM1723; details: summary of Table 4; in words
Description: Stability in rat and human serum was also evaluated using a bioassay. 320 μg/ml of the test compound was treated with 50% serum for 4 hours.
Bioassays as described in Example 62 and Example 65 were used to evaluate the stability of various compounds in serum and rabbit kidney homogenates.

[9] = test system: P. aeruginosa strain PAM1723 overexpressing MexAB-OprM efflux pump; assay: Neutropenic mice thigh model of PA infection; assay type: in vivo; details: levofloxacin 30 mg/kg SQ, EPI 60 mg/kg IP, 2 hours post-infection
Description: Efficacy of the EPIs was evaluated in a Neutropenic Mice Thigh Model of P. aeruginosa Infection. Neutropenia was induced by cyclophosphamide 100 mg/kg IP on days 3 and 1 prior to infection. P. aeruginosa strain PAM1723 overexpressing MexAB-OprM efflux pump was grown overnight in Mueller-Hinton Broth (MHB). The next day, the overnight culture was diluted in fresh MHB and was allowed to re-grow to ˜10^8 CFU/mL (OD600˜0.3). The culture was spun down, washed twice with phosphate buffered saline (PBS) and re-suspend in PBS to ˜4×10^6 CFU/mL. Next, this culture was mixed 1:1 with 14% hog-gastric mucin in PBS to give a final inoculum of 2×10^6 CFU/mL. Infection was initiated with injection of 0.1 mL of inoculum (˜2×10^5 CFU/thigh) directly into both thighs of each mouse. Two mice from each treatment group were euthanized at various times after the start of treatment. The thighs were removed aseptically, homogenized in saline, and immediately plated to determine bacterial load (CFU/ml). Treatment was initiated 2 hours post infection.

[10] = in vivo; cited from earlier work

SMILES | in vitro levofloxacin potentiating activity [4] | metabolism in serum to produce compound 3 [5] | MLD (minimal lethal dose) [6] | further results
NC(CCc1ccccc1)C(=O)Nc1cnc2ccccc2c1 (stereo in doubt) [Compound 67, 2-(S)-Amino-4-phenyl-N-quinolin-3-yl-butyramide] | – | – | – | level of degradation product 67 formed from compound 3 [1]: increased; generation of metabolite 67 from compound 3 in human kidney [2]: detected; detection of metabolite 67 in rat tissues after IV administration of compound 3 [3]: detected
NCCC[C@H](NC(=O)C[C@H](N)C(=O)O)C(=O)N[C@H](CCc1ccccc1)C(=O)Nc1cnc2ccccc2c1 [Compound 5, 2-(S)-Amino-N-{4-amino-1-(S)-[3-phenyl-1-(R)-(quinolin-3-ylcarbamoyl)-propylcarbamoyl]-butyl}-succinamic acid] | devoid of levofloxacin potentiating activity | readily metabolized | 75 mg/kg | bacterial load in infected lungs, EPI with levofloxacin [7]: efficacious
N[C@@H](CC(=O)O)C(=O)NCCC[C@H](N)C(=O)N[C@H](CCc1ccccc1)C(=O)Nc1cnc2ccccc2c1 [Compound 34, 3-(S)-Amino-N-{4-(S)-amino-4-[3-phenyl-1-(R)-(quinolin-3-ylcarbamoyl)-propylcarbamoyl]-butyl}-succinamic acid] | – | – | 50 mg/kg | stability in rat serum [8]: unstable in rat serum
N[C@@H](CC(=O)O)C(=O)NCCC[C@H](NC(=O)[C@@H](N)CC(=O)O)C(=O)N[C@H](CCc1ccccc1)C(=O)Nc1cnc2ccccc2c1 [Compound 43, 3-Amino-(S)—N-{4-(S)-(2-(3)-(S)-amino-3-carboxy-propionylamino)-4-[3-phenyl-1-(R)-(quinolin-3-ylcarbamoyl)-propylcarbamoyl]-butyl}-succinamic acid] | did not have in vitro levofloxacin potentiating activity | readily metabolized | 150 mg/kg | bacterial load in thighs, EPI with levofloxacin versus levofloxacin alone [9]: potentiated levofloxacin in vivo
N=C(N)c1ccc(OCCCCCOc2ccc(C(=N)N)cc2)cc1 [pentamidine] | – | – | – | incidence of kidney toxicity [10]: above 75%
